Activity calls are given as the source filed them. The calls are words filed in the database; no cut-off is given here.
Experiments:
HCC827 [1] = test: Downregulation of HK-2 expression level in human HCC827 cells 0.5 uM by Western blot analysis; format: functional, cell-based; conditions: time 3-24 hrs
HCC827 [2] = test: Induction of cell cycle arrest in human HCC827 cells assessed as accumulation of cells at G2 phase at 0.1 uM incubated for 24 hrs by PI staining based flow cytometry analysis (reference value: 7.15%); format: functional
[3] = Antiproliferative activity against human Osimertinib-resistant HCC827 cell assessed as inhibition of cell growth measured after 72 hrs by MTT assay; format: functional, cell-based
BEAS-2B = test: Induction of mitochondrial dysfunction in human BEAS-2B cells assessed as reduction in glycolytic reserve at 0.125 to 5 uM incubated for 4 hrs by Seahorse XF96 extracellular flux analyzer; format: functional, cell-based; conditions: dose 0.125-5 µM
NCI-H1650 = test: Antiproliferative activity against human NCI-H1650 cells assessed as inhibition of cell growth measured after 72 hrs by MTT assay; format: functional, cell-based; conditions: NCI-H1650, 72 h
HCC827 [4] = test: Induction of ROS generation in human HCC827 cells assessed as fold change at 1 uM incubated for 4 hrs in presence of VC by DCFH-DA staining based by absorbance based laser confocal microscopic analysis (reference value: 2.67); format: functional
HCC827 [5] = test: Induction of cell cycle arrest in human HCC827 cells assessed as accumulation of cells at G1 phase at 0.4 uM incubated for 24 hrs by PI staining based flow cytometry analysis (reference value: 66.44%); format: functional
Mitochondrial membrane [6] = test: Induction of mitochondrial membrane depolarization in human HCC827 cells assessed as increase in J-monomer ratio at 0.125 to 0.5 uM incubated for 4 hrs by JC-1 staining based flow cytometric analysis; format: cell membranes; conditions: dose 0.125-0.5 µM
HCC827 [7] = test: Antiproliferative activity against human HCC827 cells assessed as cell viability preincubated with Nec followed by compound addition and measured after 48 hrs by MTT assay; format: functional, cell-based
HCC827 [8] = test: Induction of cell cycle arrest in human HCC827 cells assessed as accumulation of cells at G1 phase incubated for 24 hrs by PI staining based flow cytometry analysis; format: functional; conditions: dose 0.1-0.4 µM
HCC827 [9] = test: Induction of cell cycle arrest in human HCC827 cells assessed as accumulation of cells at G1 phase at 0.1 uM incubated for 24 hrs by PI staining based flow cytometry analysis (reference value: 66.44%); format: functional
HCC827 [10] = test: Induction of apoptosis in human HCC827 cells assessed as early apoptotic cells at 1 uM measured after 36 hrs by annexin V and PI staining based flow cytometry analysis (reference value: 1.80%); format: functional
HCC827 [11] = test: Induction of ferroptosis in human HCC827 cells assessed as increase in MDA content incubated for 24 hrs by absorbance based analysis; format: functional, cell-based; conditions: dose 0.25-0.5 µM
HCC827 [12] = test: Induction of apoptosis in human HCC827 cells assessed as late apoptotic cells at 1 uM measured after 36 hrs by annexin V and PI staining based flow cytometry analysis (reference value: 2.18%); format: functional
HCC827 [13] = test: Induction of mitochondrial dysfunction in human HCC827 cells assessed as cristae reduction by TEM analysis; format: functional, cell-based
HCC827 [14] = test: Induction of mitochondrial dysfunction in human HCC827 cells assessed as appearance of vacuoles with damaged mitochondria at 1 uM after 24 hrs by TEM analysis; format: functional, cell-based
HCC827 [15] = test: Inhibition of cell migration in human HCC827 cells at 0.05 to 0.1 uM incubated for 24 hrs by crystal violet staining based transwell assay; format: functional; conditions: dose 0.05-0.1 µM
HEK-293T [16] = test: Downregulation of […] expression level in human HEK293T cells harbouring PINK knockout at 0.25 to 0.5 uM; format: functional, cell-based; conditions: dose 0.25-0.5 µM
HCC827 [17] = test: Antiproliferative activity against human HCC827 cells assessed as cell viability measured after 48 hrs by MTT assay; format: functional, cell-based; conditions: HCC827, 48 h
HCC827 [18] = test: Induction of apoptosis in human HCC827 cells assessed as late apoptotic cells at 1 uM measured after 48 hrs by annexin V and PI staining based flow cytometry analysis (reference value: 1.29%); format: functional
[19] = Antiproliferative activity against HEK293T cells assessed as inhibition of cell growth measured after 72 hrs by MTT assay; format: toxicity, cell-based, HEK-293T; conditions: human
HCC827 [20] = test: Antiproliferative activity against human HCC827 cells assessed as cell viability at 1 uM measured after 48 hrs in presence of deferoxamine by MTT assay relative to control; format: functional; conditions: read-out: Activity
[21] = target: T1, Heat shock protein 75 kDa, mitochondrial (Homo sapiens) (UniProt Q12931); test: Inhibition of human TRAP1 assessed as fold increase in ATPase activity at 20 uM
T1 sequence (whole entry): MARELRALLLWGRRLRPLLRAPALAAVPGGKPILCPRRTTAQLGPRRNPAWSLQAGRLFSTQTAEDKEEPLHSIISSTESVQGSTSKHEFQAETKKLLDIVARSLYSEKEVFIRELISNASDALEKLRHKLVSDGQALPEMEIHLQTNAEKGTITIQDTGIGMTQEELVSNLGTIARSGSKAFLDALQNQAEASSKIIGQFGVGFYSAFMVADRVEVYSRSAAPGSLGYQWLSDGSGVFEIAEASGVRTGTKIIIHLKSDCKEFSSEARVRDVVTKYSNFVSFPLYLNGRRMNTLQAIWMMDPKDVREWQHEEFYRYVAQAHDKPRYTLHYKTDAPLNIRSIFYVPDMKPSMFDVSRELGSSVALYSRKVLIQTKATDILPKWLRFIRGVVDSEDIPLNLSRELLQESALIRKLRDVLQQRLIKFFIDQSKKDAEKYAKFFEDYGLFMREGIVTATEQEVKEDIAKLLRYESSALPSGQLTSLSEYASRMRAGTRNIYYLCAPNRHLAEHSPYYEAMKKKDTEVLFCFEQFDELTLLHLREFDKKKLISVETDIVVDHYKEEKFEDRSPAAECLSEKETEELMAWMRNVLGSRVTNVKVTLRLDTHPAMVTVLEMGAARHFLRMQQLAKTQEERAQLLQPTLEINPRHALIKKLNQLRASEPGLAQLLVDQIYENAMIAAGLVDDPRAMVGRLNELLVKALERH

Mitochondrial membrane [22] = test: Induction of mitochondrial membrane depolarization in human HCC827 cells assessed as decrease in red fluorescence at 0.125 to 0.5 uM incubated for 4 hrs by JC-1 staining based confocal microscopy analysis; format: cell membranes; conditions: dose 0.125-0.5 µM
HCC827 [23] = test: Effect on ATP5A expression in human HCC827 cells at 0.25 to 0.5 uM; format: functional, cell-based; conditions: dose 0.25-0.5 µM
HCC827 [24] = test: Downregulation of HK-2 expression level in human HCC827 cells 0.25 to 0.5 uM incubated for 24 hrs in presence of BFA by Western blot analysis; format: functional, cell-based; conditions: dose 0.25-0.5 µM
HCC827 [25] = test: Induction of apoptosis in human HCC827 cells assessed as early apoptotic cells at 1 uM measured after 48 hrs by annexin V and PI staining based flow cytometry analysis (reference value: 1.80%); format: functional
HCC827 [26] = test: Downregulation of HK-2 expression level in human HCC827 cells 0.5 uM incubated for 3 to 24 hrs in presence of BFA by Western blot analysis; format: functional, cell-based; conditions: time 3-24 hrs
HEK-293T [27] = test: Downregulation of TIMM23 expression level in human HEK293T cells harbouring PINK knockout at 0.25 to 0.5 uM; format: functional, cell-based; conditions: dose 0.25-0.5 µM

Cc1ccc([P+](CCCCCCCCCCO)(c2ccc(C)cc2)c2ccc(C)cc2)cc1.[Br-]
Activity (HCC827 [1]): Time-dependent-effect
Activity (HCC827 [2]): 4.83%
IC50 [3]: 230 nM
Activity (BEAS-2B): Minimal_effect
IC50 (NCI-H1650): 470 nM
Activity (HCC827 [4]): 0.8
Activity (HCC827 [5]): 85.66%
Activity (Mitochondrial membrane [6]): Active
IC50 (HCC827 [7]): 130 nM
Activity (HCC827 [8]): Dose-dependent-effect
Activity (HCC827 [9]): 71.14%
Activity (HCC827 [10]): 0.18%
Activity (HCC827 [11]): Dose-dependent-effect
Activity (HCC827 [12]): 0.32%
Activity (HCC827 [13]): Active
Activity (HCC827 [14]): Active
inhibition (HCC827 [15]): Active
Activity (HEK-293T [16]): inactive
IC50 (HCC827 [17]): 120 nM
Activity (HCC827 [18]): 9.96%
IC50 at 72 h [19]: 1520 nM
viability at 1 µM (HCC827 [20]): 51.4%
fold change (FC) [21]: 2
Activity (Mitochondrial membrane [22]): Active
Activity (HCC827 [23]): Active
Activity (HCC827 [24]): inactive
Activity (HCC827 [25]): 5.33%
Activity (HCC827 [26]): inactive
Activity (HEK-293T [27]): inactive

Reference: ChEMBL document CHEMBL6182916, “Unexpected Discovery of a Novel Triphenylphosphonium Alkylalcohol That Triggers Cancer Cell Death via Mitophagy and Ferroptosis” (J Med Chem, 2025)
